Laboratory results from patent US20250195475A1, “CDK2 INHIBITOR AND PREPARATION METHOD AND USE THEREOF” (INVENTISBIO CO., LTD., priority 2022, published 2025).
pIC50: −log10 of the molar value.

Target: CDK2/CyclinE1 (Homo sapiens (Human), UniProt P24941)
Assay: CDK2 kinase assay (TR-FRET)
Assay type: biochemical
Conditions: CDK2/CyclinE1 0.5 nM, ATP 50 μM
Experimental: The purpose of these assays is to evaluate the inhibition of small molecule inhibitors by using TR-FRET assay.
Compound Preparation. Dissslove the compounds into DMSO solution to make 10 mM DMSO stock. Serially dilute the stock solution from highest concentration down to lowest in DMSO to make the compound stock plate (100× stock plates). To make 5× compound intermediate plate, add 38 μL of assay buffer (50 mM HEPES, pH 7.5, 0.05 mg/mL BSA, 10 mM MgCl2, 1 mM EGTA, 0.01% Tween-20, 2 mM DTT) into each well of the V-bottom plate; then transfer 2 μL of the stock compound solution of each concentration from the compound stock plate (100× stock), and mix well.
Enzyme reaction. Transfer 2 μL compound from 5× intermediate plate into assay plate, then add 4 μL/well 2.5× Enzyme mix to assay plate, incubation for 10 min at room temperature. For positive control wells, add 4 μL/well assay buffer instead of Enzyme mix. Then add 4 μL/well 2.5× Substrate mix to assay plate, and incubation at 25° C. for 30 min at room temperature. After reaction, 10 μL 2× Detection mix (final 15 mM EDTA, 1× LANCE Detection Buffer, 0.5 nM Detection antibody) was added and incubated for 1 h prior to detection with excitation and emission at 320 and 665 nm (Tecan Spark® TR-FRET mode Tecan).
Inhibition rate (IR) of the tested compounds was determined by the following formula: IR (%)=(average High control−compound well)/(average High control−average Low control)*100%. Fit the compound IC50 from non-linear regression equation: Y=Bottom+(Top−Bottom)/(1+10^((Log IC50−X)*HillSlope)). X: Log of cpd concentration; Y: Inhibition rate (TR); Top and Bottom: Plateaus in same units as Y, log IC50: same log units as X; HillSlope: Slope factor or Hill slope.

SMILES	pIC50
CC(C)NC(=O)O[C@@H]1CC[C@H](c2cc(NC(=O)[C@H]3CCN(C(=O)C(C)C)C3)n[nH]2)C1 [Compound 31]	8.09
CC(C)NC(=O)O[C@@H]1CC[C@H](c2cc(NC(=O)[C@H]3CCN(C(=O)c4cnn(C)c4)C3)n[nH]2)C1 [Compound 32]	8.54
CC(C)NC(=O)O[C@@H]1CC[C@H](c2cc(NC(=O)C3CCCC3)n[nH]2)C1 [Compound 37]	8.54
COC[C@H]1C[C@@H]1C(=O)Nc1cc([C@H]2CC[C@@H](OC(N)=O)C2)[nH]n1 [Compound 40]	7.32
Cn1nccc1C(=O)Nc1cc([C@H]2CC[C@@H](OC(=O)NC34CCC(CC3)OC4)C2)[nH]n1 [Compound 42]	8.36
CC(C)NC(=O)O[C@@H]1CC[C@H](c2cc(NC(=O)[C@H]3C[C@@H]3COC(C)C)n[nH]2)C1 [Compound 45]	8.57
CC(C)NC(=O)O[C@@H]1CC[C@H](c2cc(NC(=O)[C@H]3C[C@@H]3CC#N)n[nH]2)C1 [Compound 56]	8.40
COC[C@H]1C[C@@H]1C(=O)Nc1cc([C@H]2CC[C@@H](OC(=O)N[C@@H](C)C3CC3)C2)[nH]n1 [Compound 57]	8.24
CC(C)NC(=O)O[C@@H]1CC[C@H](c2cc(NC(=O)[C@@H]3CCN(S(=O)(=O)C(C)C)C3)n[nH]2)C1 [Compound 58]	8.39
CC[C@H](C)NC(=O)O[C@@H]1CC[C@H](c2cc(NC(=O)[C@@H]3CCN(S(C)(=O)=O)C3)n[nH]2)C1 [Compound 59]	8.31
CC(C)NC(=O)OC1COC(c2cc(NC(=O)Cc3ccc(C(F)(F)F)cc3)n[nH]2)C1 (centres unmarked) [Compound 63]	8.01
CC(C)NC(=O)OC1COC(c2cc(NC(=O)Cc3ccccc3C(F)(F)F)n[nH]2)C1 (centres unmarked) [Compound 64]	7.78
CC(C)NC(=O)OC1COC(c2cc(NC(=O)Cc3ccccc3C(F)(F)F)n[nH]2)C1 (centres unmarked) [Compound 65]	7.01
CC(C)NC(=O)OC1COC(c2cc(NC(=O)c3ccccc3)n[nH]2)C1 (centres unmarked) [Compound 66]	7.84
CC(C)NC(=O)OC1COC(c2cc(NC(=O)c3ccccc3)n[nH]2)C1 (centres unmarked) [Compound 67]	7.21
CO[C@H]1C[C@H](C(=O)Nc2cc([C@H]3CC[C@@H](OC(=O)NC(C)C)C3)[nH]n2)C1 [Compound 68]	8.10
COCc1cc(C(=O)Nc2cc([C@H]3C[C@@H]4[C@H](C3)[C@H]4C(=O)NC(C)C)[nH]n2)n(C)n1 [Compound 69]	7.73
CC(C)NC(=O)O[C@@H]1CC[C@H](c2cc(NC(=O)[C@@H]3CCCN(S(C)(=O)=O)C3)n[nH]2)C1 [Compound 71]	8.06
COC1CN(CC(=O)Nc2cc([C@H]3CC[C@@H](OC(=O)NC(C)C)C3)[nH]n2)C1 [Compound 72]	6.68
COC[C@H]1C[C@@H]1C(=O)Nc1cc([C@H]2CC[C@@H](OC(=O)N[C@H](C)C3CC3)C2)[nH]n1 [Compound 73]	8.39
CC(C)NC(=O)O[C@@H]1CC[C@H](c2cc(NC(=O)C3CN(S(C)(=O)=O)CC3C)n[nH]2)C1 (some centres unmarked) [Compound 75]	7.94

SMILES	pIC50
CC(C)NC(=O)O[C@@H]1CC[C@H](c2cc(NC(=O)[C@H]3CCCN(S(C)(=O)=O)C3)n[nH]2)C1 [Compound 76]	7.64
CC(C)NC(=O)O[C@@H]1CO[C@H](c2cc(NC(=O)c3cc(C4CC4)nn3C)n[nH]2)C1 [Compound 77]	7.25
CCc1cc(C(=O)Nc2cc([C@@H]3C[C@H](OC(=O)NC(C)C)CO3)[nH]n2)n(C)n1 [Compound 78]	7.73
CCc1cc(C(=O)Nc2cc([C@H]3C[C@@H](OC(=O)NC(C)C)CO3)[nH]n2)n(C)n1 [Compound 79]	8.12
CC(C)NC(=O)O[C@H]1CO[C@@H](c2cc(NC(=O)c3cc(C4CC4)nn3C)n[nH]2)C1 [Compound 80]	7.81
CC(C)NC(=O)O[C@@H]1CC[C@H](c2cc(NC(=O)CN3CC(F)C3)n[nH]2)C1 [Compound 82]	6.94
CC(C)NC(=O)O[C@@H]1CC[C@H](c2cc(NC(=O)C3CC3C#N)n[nH]2)C1 (some centres unmarked) [Compound 87]	8.44
Cc1cc(C(=O)Nc2cc([C@H]3C[C@@H](OC(=O)NC(C)C)CO3)[nH]n2)n(C)n1 [Compound 90]	8.24
Cc1cc(C(=O)Nc2cc([C@@H]3C[C@H](OC(=O)NC(C)C)CO3)[nH]n2)n(C)n1 [Compound 91]	7.72
CC(C)NC(=O)O[C@@H]1CO[C@H](c2cc(NC(=O)c3ccnn3CC(F)F)n[nH]2)C1 [Compound 93]	8.28
Cn1nccc1C(=O)Nc1cc([C@@H]2C[C@H](OC(=O)NC3(C)CC3)CO2)[nH]n1 [Compound 95]	8.43
COCc1cc(C(=O)Nc2cc([C@H]3C[C@@H]4[C@H](C3)[C@H]4C(=O)NC(C)(C)C)[nH]n2)n(C)n1 [Compound 98]	7.73
CC(C)NC(=O)O[C@@H]1CO[C@H](c2cc(NC(=O)Cc3ccc4ncn(C)c4c3)n[nH]2)C1 [Compound 103]	7.97
COCc1cc(F)cc(CC(=O)Nc2cc([C@@H]3C[C@H](OC(=O)NC(C)C)CO3)[nH]n2)c1 [Compound 104]	7.76
CC(C)NC(=O)O[C@H]1CO[C@@H](c2cc(NC(=O)c3cc(C(F)F)nn3C)n[nH]2)C1 [Compound 111]	8.39
CC(C)NC(=O)O[C@@H]1CO[C@H](c2cc(NC(=O)c3cc(C(F)F)nn3C)n[nH]2)C1 [Compound 112]	7.87
CC(C)NC(=O)O[C@@H]1CC[C@H](c2cc(NC(=O)C3[C@H]4COC[C@@H]34)n[nH]2)C1 (some centres unmarked) [Compound 115]	7.26
CC(C)NC(=O)O[C@@H]1CO[C@H](c2cc(NC(=O)Cc3cc(F)cc(C#N)c3)n[nH]2)C1 [Compound 116]	8.35
COC[C@@H]1CCN(C(=O)Nc2cc([C@H]3CC[C@@H](OC(=O)NC(C)C)C3)[nH]n2)C1 [Compound 120]	6.94
CC(C)NC(=O)O[C@H]1CO[C@@H](c2cc(NC(=O)Cc3ccc(OCCN4CCCC4)cc3)n[nH]2)C1 [Compound 121]	8.49
COC[C@H]1CCN(C(=O)Nc2cc([C@H]3CC[C@@H](OC(=O)NC(C)C)C3)[nH]n2)C1 [Compound 123]	6.58

Stronger by pIC50, values ahead:

pIC50	SMILES
8.64	CC(C)NC(=O)OC1COC(c2cc(NC(=O)Cc3ccc(C(F)(F)F)cc3)n[nH]2)C1 (centres unmarked) [Compound 62]
8.66	CC(C)NC(=O)O[C@@H]1CC[C@H](c2cc(NC(=O)C3CN(S(C)(=O)=O)CC3C)n[nH]2)C1 (some centres unmarked) [Compound 74]
8.70	COCC1C[C@@H]1C(=O)Nc1cc([C@H]2CC[C@@H](OC(=O)NC(C)(C)C)C2)[nH]n1 (some centres unmarked) [Compound 85]
8.70	CC(C)NC(=O)O[C@H]1CO[C@@H](c2cc(NC(=O)c3ccnn3CC(F)F)n[nH]2)C1 [Compound 92]
8.74	CC(C)NC(=O)O[C@@H]1CC[C@H](c2cc(NC(=O)C34CC(C(F)F)(C3)C4)n[nH]2)C1 [Compound 106]
8.77	CC1(NC(=O)OC2COC(c3cc(NC(=O)Cc4cc(F)cc(F)c4)n[nH]3)C2)CCOC1 (centres unmarked) [Compound 51]
8.82	CC(C)NC(=O)O[C@@H]1CC[C@H](c2cc(NC(=O)C34CC(C3)C4)n[nH]2)C1 [Compound 46]
8.82	Cn1nccc1C(=O)Nc1cc([C@H]2C[C@@H](OC(=O)NC(C)(C)C)CO2)[nH]n1 [Compound 101]
8.89	Cn1nccc1C(=O)Nc1cc([C@H]2C[C@@H](OC(=O)NC3(C)CC3)CO2)[nH]n1 [Compound 94]
8.92	CC(C)NC(=O)O[C@@H]1CC[C@H](c2cc(NC(=O)[C@@H]3CCN(S(=O)(=O)C4CC4)C3)n[nH]2)C1 [Compound 70]
8.92	CS(=O)(=O)N1CC[C@@H](C(=O)Nc2cc([C@H]3CC[C@@H](OC(=O)NC4(C(F)F)CC4)C3)[nH]n2)C1 [Compound 124]
8.96	CC1(NC(=O)O[C@@H]2CC[C@H](c3cc(NC(=O)[C@@H]4CCN(S(C)(=O)=O)C4)n[nH]3)C2)CC1 [Compound 83]
8.96	CC(C)NC(=O)O[C@@H]1CC[C@H](c2cc(NC(=O)[C@H]3C[C@@H]3COC(F)F)n[nH]2)C1 [Compound 105]
9.05	CC1(NC(=O)OC2COC(c3cc(NC(=O)Cc4cc(F)cc(F)c4)n[nH]3)C2)CCOC1 (centres unmarked) [Compound 50]
9.05	CS(=O)(=O)N1CC[C@@H](C(=O)Nc2cc([C@H]3CC[C@@H](OC(=O)NC45CC(C4)C5)C3)[nH]n2)C1 [Compound 81]
9.10	COC[C@H]1C[C@@H]1C(=O)Nc1cc([C@H]2CC[C@@H](OC(=O)NC3(C)CC3)C2)[nH]n1 [Compound 35]
9.10	Cn1nccc1C(=O)Nc1cc([C@H]2C[C@@H](OC(=O)NC34CC(C3)C4)CO2)[nH]n1 [Compound 96]
9.10	CC[C@H](C)NC(=O)O[C@H]1CO[C@@H](c2cc(NC(=O)c3ccnn3C)n[nH]2)C1 [Compound 99]
9.15	COC[C@H]1C[C@@H]1C(=O)Nc1cc([C@H]2CC[C@@H](OC(=O)NC34CC(C3)C4)C2)[nH]n1 [Compound 34]
9.40	CC1(NC(=O)O[C@@H]2CC[C@H](c3cc(NC(=O)[C@@H]4CCN(S(C)(=O)=O)C4)n[nH]3)C2)CCC1 [Compound 119]
